In US7374898B2, “Peptide inhibitors against seprase” (The Research Foundation of State University of New York, priority 2004, dated 2008):
“Also recorded” adds a separate entry of the source. Read-outs that look alike come from different tables or passages of the source. Where a SMILES comes first, the peptide text is derived from it. Bridges are numbered along the chain shown (N, C = ends).

How the values were obtained:
LOX cells [1] = assay: Cell viability, apoptosis and cell death assays on collagen films; assay type: cell-based; design: dose or concentration left out as unconfirmed
Procedure: In parallel to the assay assessing the overall collagen degradation by LOX cells described above (FIG. 3A), LOX cells grown on collagen films were determined for their physiological responses to peptide or other protease inhibitors in terms of cell viability (FIG. 3B), apoptosis (FIG. 3C) and cell death (FIG. 3D). Cell viability, apoptosis and cell death assays were performed using Molecular Probes (Eugene, Oreg.) Live/Dead Viability/Cytotoxicity kit and Vybrant Apoptosis Assay Kit #4 and followed the manufacturer's instruction. LOX cells (10^4/well) were cultured on a type I collagen coated 96-well microtiter plate in the presence of inhibitors at 37° C. overnight. After washing gently with PBS, dyes for the cell viability assay (Calcein Am, 2 mM, only stained live cells) and for the apoptosis assay (YO-PRO [a fluorescent nuclear dye], 0.25 mM, stained apoptotic cells; ethidium homodimer-1, 4 mM, stained dead cells) were added and incubated at 25° C. for 45 min. The fluorescence intensity was read at the wavelength of 485 nm/538 nm or 544 nm/612 nm. In the LIVE/DEAD Viability/Cytotoxicity Assay, high fluorescent intensity indicates high number of viable cells, whereas in the Vybrant Apoptosis Assay, high fluorescent intensity units indicate high number of apoptotic or dead cells.

[2] = tested on: human ovarian tumor cells
seprase [3] = target: T1, seprase (Homo sapiens, UniProt Q12884); assay: Prolyl dipeptidase activity of seprase, Gly-Pro-pNA substrate; conditions: for inhibition of the prolyl dipeptidase activity of seprase: Gly-Pro-pNA 2 mM, different concentrations of peptides; for inhibition of seprase: FIG. 1
T1 sequence (Q12884 1-760): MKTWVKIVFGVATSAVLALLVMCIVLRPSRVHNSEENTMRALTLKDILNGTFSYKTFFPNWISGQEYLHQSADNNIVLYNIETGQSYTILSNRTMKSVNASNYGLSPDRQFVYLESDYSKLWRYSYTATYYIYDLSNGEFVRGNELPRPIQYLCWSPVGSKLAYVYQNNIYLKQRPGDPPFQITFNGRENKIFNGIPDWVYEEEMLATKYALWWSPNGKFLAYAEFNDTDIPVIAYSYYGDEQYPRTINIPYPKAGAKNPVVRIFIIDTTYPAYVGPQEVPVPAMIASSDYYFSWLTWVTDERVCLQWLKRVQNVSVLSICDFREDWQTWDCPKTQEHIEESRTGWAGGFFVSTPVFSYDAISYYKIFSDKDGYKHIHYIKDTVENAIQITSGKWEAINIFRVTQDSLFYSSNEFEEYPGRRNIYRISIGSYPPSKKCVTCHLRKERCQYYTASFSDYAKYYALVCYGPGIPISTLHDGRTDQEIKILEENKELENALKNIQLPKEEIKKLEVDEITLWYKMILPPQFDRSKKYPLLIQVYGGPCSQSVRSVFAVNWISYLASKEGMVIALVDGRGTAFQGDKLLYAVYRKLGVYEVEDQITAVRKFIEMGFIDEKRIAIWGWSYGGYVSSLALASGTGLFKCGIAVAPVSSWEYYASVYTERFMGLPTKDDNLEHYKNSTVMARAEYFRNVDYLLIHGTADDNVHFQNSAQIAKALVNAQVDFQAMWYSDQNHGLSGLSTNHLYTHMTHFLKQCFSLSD

LOX cells [4] = assay: Overall collagen degradation by cells, Bodipy FL C5 labelled type I collagen microtiter plate; assay type: cell-based, human; conditions: 16 hours, 37° C., FIG. 3A
Procedure: The assay involves coating 96-well microtiter plates with Bodipy FL C5 labelled type I collagen films. It allows direct measurement of collagen degradation by cells, as the release of fluorescent intensity is in proportion to the degree of collagen degradation. To prepare collagen films, collagen solution mixed with DMEM (1:4 v/v) was coated as a thin layer in each well of a 96-well microtiter plate, and incubated for 1 h at 37° C. to allow gel formation. Labeling of collagen films involved borate buffer, pH 8.3, containing 3 mg of BODIPY FL C5 (Molecular Probes) at 25° C. To determine collagen degradation by cells, LOX cells (10^4/well) were seeded in a 96-well microtiter plate pre-coated with Bodipy FL C5 labeled type I collagen, and incubated in the presence of different concentrations of inhibitors at 37° C. for 16 hours. The increase in fluorescence at 485 nm (excitation)/538 nm (emission) is proportional to the ability of cells to degrade fluorescently labeled collagen films. Change in fluorescent intensity was monitored with a fluorescence microtiter plate reader (Molecular Devices, Sunnyvale, Calif.).

matrix metalloproteinase = conditions: supplier information; read-out: Ki of matrix metalloproteinase inhibitor; cited from earlier work
DPP4 = DPP4 (Homo sapiens, UniProt P27487); conditions: reported values; read-out: KiDPP4 of reported DPP4 competitive inhibitors; cited from earlier work
Chain of DPP4 (P27487 whole entry, species assumed): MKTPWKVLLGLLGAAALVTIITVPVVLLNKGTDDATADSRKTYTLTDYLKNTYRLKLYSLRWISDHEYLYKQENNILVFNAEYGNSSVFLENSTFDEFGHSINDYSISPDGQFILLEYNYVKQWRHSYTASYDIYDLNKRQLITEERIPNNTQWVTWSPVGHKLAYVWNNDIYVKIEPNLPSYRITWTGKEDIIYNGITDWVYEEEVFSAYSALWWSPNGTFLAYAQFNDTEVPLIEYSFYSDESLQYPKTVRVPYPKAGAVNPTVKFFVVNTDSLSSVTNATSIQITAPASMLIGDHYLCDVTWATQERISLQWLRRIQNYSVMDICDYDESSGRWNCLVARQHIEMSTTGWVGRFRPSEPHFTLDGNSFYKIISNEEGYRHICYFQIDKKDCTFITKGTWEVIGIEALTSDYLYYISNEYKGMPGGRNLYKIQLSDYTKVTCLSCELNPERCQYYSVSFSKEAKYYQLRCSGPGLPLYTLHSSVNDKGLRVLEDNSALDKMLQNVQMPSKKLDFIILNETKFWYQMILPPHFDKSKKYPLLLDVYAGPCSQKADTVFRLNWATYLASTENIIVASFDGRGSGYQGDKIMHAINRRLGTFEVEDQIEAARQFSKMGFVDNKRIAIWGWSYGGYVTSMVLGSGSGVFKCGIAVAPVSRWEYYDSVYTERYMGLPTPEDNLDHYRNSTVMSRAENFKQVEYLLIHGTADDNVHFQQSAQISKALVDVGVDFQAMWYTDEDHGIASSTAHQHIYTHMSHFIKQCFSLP

[5] = tested on: Human ovarian cancer cells isolated from mouse ascites; assay: In vitro extracellular matrix degradation and ingestion assay on TRITC-type I collagen films; assay type: cell-based; conditions: at 1 mM, 16 to 24 hours
Procedure: It consists of seeding tumor cells on fluorescently labeled type I collagen films and determining the ability of tumor cells to degrade and ingest the fluorescently labeled extracellular matrix. Two inhibitors, H-Ile-Pro-NHO-PNB (DPP4-specific) and the cyclic peptide [sequence] [SEQ ID NO:3] (seprase-specific) were used. Human ovarian cancer cells isolated from mouse ascites as described in Example 7 were seeded on TRITC-type I collagen films.

seprase [6] = target: T1, seprase; assay: Gelatinolytic activity of seprase, soluble fluorescent DQ-gelatin assay; assay type: biochemical; design: Native seprase, which was isolated from LOX cells grown on type I collagen films according to previously described procedures; endogenous in cells; host or cells: LOX human amelanotic melanoma cells; WGA-enriched fraction, immuno-captured with mAb D8; conditions: DQ-gelatin 25 μg/ml, 37° C., 16 hours, FIG. 1B
LOX cells [7] = assay: Peptide binding to seprase-expressing LOX cells (ELISA and immunofluorescence); assay type: cell-based, human
Procedure: (§1) It was also determined if synthetic peptides targeting seprase could bind seprase-expressing LOX cells but not seprase-negative tumor cells including the human melanoma cell line SKMEL-28.

SKMEL-28 cells = assay: Peptide binding to seprase-negative SKMEL-28 cells (ELISA and immunofluorescence); assay type: cell-based, human
Procedure: as §1

GFP-LOX cells = assay: Melanoma growth and metastasis to lung and liver in nude mice co-inoculated with GFP-LOX cells; assay type: in vivo, NCR Nude mice; conditions: CDMWERVSRC 300 μM or control peptide 500 μM, 28 days
Procedure: Number of GFP-melanoma cells or micrometastases in lung (J) and liver (K) tissues freshly excised from animals was counted per 3×10^5 μm^2 under an epifluorescence microscope.
We next determined whether [sequence] […] GFP-tagged LOX cells, 2×10^5 cells/mouse, were co-inoculated subcutaneously with peptides into flanks of NCR Nude mice, and followed by daily injections of peptide solutions into sites 2 mm adjacent to tumors. […] GFP-tagged LOX cells, 2×10^5 cells suspended in 100 ml of serum-free DMEM, that were pre-incubated with [sequence] [SEQ ID NO: 3] (300 μM) or control peptides (500 μM) were injected subcutaneously into flanks of NCR Nude mice (female; Taconic Co., Germantown, N.Y.). In addition, [sequence] [SEQ ID NO: 3] (300 μM) and control peptides (500 μM) were daily injected into the subcutaneous tissue 2 mm adjacent to tumor sites. Total of 3 mice were used for each experimental or control group. Tumors were measured twice a week. After 28 days, mice were sacrificed by anesthetic overdose. Tissues including primary tumor, lung and liver were removed and examined for GFP tagged melanoma cells and micrometastases by epifluorescence microscopy, followed by enumeration and photography. Melanoma cells in lung and liver were calculated by counting number of GFP-melanoma cells or micrometastases in these tissues freshly excised from animals in a 3×10 μm^2 area in 10 different regions.

**Q.** For `CSCC[C@@H]1NC(=O)[C@H](CC(=O)O)NC(=O)[C@@H](N)CSSC[C@@H](C(=O)O)NC(=O)[C@H](CCCNC(=N)N)NC(=O)[C@H](CO)NC(=O)[C@H](C(C)C)NC(=O)[C@H](CCCNC(=N)N)NC(=O)[C@H](CCC(=O)O)NC(=O)[C@H](Cc2c[nH]c3ccccc23)NC1=O` (H-CDMWERVSRC-OH; disulfide 1-10 (inferred); N-terminus and C-terminus assumed), which toxicity to cells (LOX cells [1]) is on record?
**A.** not toxic or lethal to cells

**Q.** And the “inhibition of growth in ascites and on peritoneum” value ([2]; mouse, in vivo, ip)?
**A.** more than 90%

**Q.** What about the “increase of catalytic Km value” (seprase [3]) of the same compound?
**A.** 5 times

**Q.** What about the inhibition at 100 µM (seprase [3]; read-out: inhibition of seprase prolyl dipeptidase activity) of the same compound?
**A.** > 60%

**Q.** For `CC(C)(C)[C@H](NC(=O)[C@H](CCCc1ccc(Cl)cc1)CC(=O)NO)C(N)=O` [CT-1746], which “inhibition of overall collagen degradation by LOX cells (words)” value (“inhibition … (words)” for short) (LOX cells [4]) is on record?
**A.** inhibited the overall collagen degradation by LOX cells in a dose dependent manner; also recorded: strongest inhibitory effect

**Q.** And the Ki (matrix metalloproteinase)?
**A.** 0.122 µM

**Q.** Which results are given for `N[C@@H](CCC(=O)NCC(=O)NCC(=O)NCC(=O)NCC(=O)NCC(=O)O)C(=O)N1CCSC1` [H-Glu(Gly5)-Thia]?
**A.** Ki (DPP4): 0.08 µM; inhibition of the prolyl dipeptidase activity of seprase (seprase [3]; FIG. 1A): inhibit

**Q.** With `CC[C@H](C)[C@H](N)C(=O)N1CCC[C@H]1C(=O)NOC(=O)c1ccc([N+](=O)[O-])cc1` [H-Ile-Pro-NHO-PNB] as the compound, how does the “inhibition … (words)” value (LOX cells [4]) read?
**A.** inhibited the overall collagen degradation by LOX cells in a dose dependent manner

**Q.** What about the “inhibition … (words)” value (LOX cells [4]; listed as H-Ile-Pro-NHO-pNB) of the same compound?
**A.** weak

**Q.** What about the “block of degradation and ingestion of collagen film” value [5] of the same compound?
**A.** 50%

**Q.** And the “inhibition of growth in ascites and on peritoneum” value ([2]; i.p. human ovarian tumor cells, 8 weeks, equimolecular amounts)?
**A.** 50%

**Q.** What about the “inhibition of the gelatinolytic activity of seprase” value (seprase [6]) of the same compound?
**A.** did not inhibit

**Q.** Which “inhibition of the prolyl dipeptidase activity of seprase” value (seprase [3]; FIG. 1A) does the source give for `CCC(C)C(N)C(=O)N1CCSC1` (stereo not shown) [H-Ile-Thia] here?
**A.** inhibit

**Q.** What about the Ki (seprase [3]; read-out: Ki, prolyl dipeptidase activity of seprase, PBS pH 7.4, 37° C., 8.0 mM Gly-Pro-pNA, FIG. 1D) of the same compound?
**A.** 0.1 µM

**Q.** And the “inhibition of the gelatinolytic activity of seprase” value (seprase [6])?
**A.** did not inhibit

**Q.** For DLDYLSKF, which “inhibition of seprase” value (seprase [3]) is on record?
**A.** potent inhibitors

**Q.** What about the “inhibition of the prolyl dipeptidase activity of seprase” value (seprase [3]; FIG. 1A) of the same compound?
**A.** inhibit

**Q.** For DMWERVSR, which “inhibition of seprase” value (seprase [3]) is on record?
**A.** potent inhibitors

**Q.** And the “activity in inhibiting seprase prolyl dipeptidase compared with other inhibitors” value (seprase [3]; FIG. 1A)?
**A.** more active than DLDYLSKF

**Q.** What about the “inhibition of the prolyl dipeptidase activity of seprase” value (seprase [3]; FIG. 1A) of the same compound?
**A.** inhibit

**Q.** With GGAGDMWERVSRG as the compound, how does the “binding to LOX cells” value (LOX cells [7]) read?
**A.** strong binding

**Q.** And the “binding to SKMEL-28 cells” value (SKMEL-28 cells)?
**A.** did not bind

**Q.** Which “inhibition of the prolyl dipeptidase activity of seprase” value (seprase [3]; FIG. 1A) does the source give for GGYR here?
**A.** no inhibition

**Q.** With GRGTWN as the compound, how does the “inhibition … (words)” value (LOX cells [4]) read?
**A.** did not

**Q.** What about the “inhibition of the prolyl dipeptidase activity of seprase” value (seprase [3]; FIG. 1A) of the same compound?
**A.** no inhibition

**Q.** For REMSDWRV, which “inhibition … (words)” value (LOX cells [4]) is on record?
**A.** did not

**Q.** And the “inhibitory effect relative to DMWERVSR” value (seprase [3]; % of the effect of DMWERVSR, FIG. 1A)?
**A.** less than 10%

**Q.** For RKISASEFDRPLR [control peptide], which “binding to LOX cells” value (LOX cells [7]) is on record?
**A.** not

**Q.** What about the “binding to SKMEL-28 cells” value (SKMEL-28 cells) of the same compound?
**A.** did not bind

**Q.** Which results are given for YISGR [control peptide]?
**A.** formation of liver micrometastases (GFP-LOX cells): did not; formation of lung micrometastases (GFP-LOX cells): did not; formation of LOX-derived human melanoma (GFP-LOX cells; co-inoculated s.c. and daily injections): did not; inhibition of the gelatinolytic activity of seprase (seprase [6]): do not
